Measured values taken from PMC6213006, “Directed Evolution of a Homodimeric Laccase from Cerrena unicolor BBP6 by Random Mutagenesis and In Vivo Assembly” (International Journal of Molecular Sciences, 2018).

How the values were obtained:
Assay in all cases: ABTS oxidation at […] nm, Lineweaver-Burk, crude culture supernatant
Type in all cases: biochemical, Cerrena unicolor
[1] = tested on: LacA (parent-type αLacA, recombinant); conditions: 100 mM acetate pH 4.0, 30 °C, 10–1000 µM ABTS, air O2; IVA189
[2] = tested on: LacA (parent-type αLacA, recombinant); conditions: 100 mM acetate pH 4.0, 30 °C, 10–1000 µM ABTS, air O2; RM1905
[3] = tested on: LacA (parent-type αLacA, recombinant); conditions: 100 mM acetate pH 4.0, 30 °C, 10–1000 µM ABTS, air O2; IVA264
[4] = tested on: LacA (parent-type αLacA, recombinant); conditions: 100 mM acetate pH 4.0, 30 °C, 10–1000 µM ABTS, air O2; RM464
[5] = tested on: LacA (parent-type αLacA, recombinant); conditions: 100 mM acetate pH 4.0, 30 °C, 10–1000 µM ABTS, air O2; RM1925
[6] = tested on: LacA (parent-type αLacA, recombinant); conditions: 100 mM acetate pH 4.0, 30 °C, 10–1000 µM ABTS, air O2
[7] = tested on: LacA (parent-type αLacA, recombinant); conditions: 100 mM acetate pH 4.0, 30 °C, 10–1000 µM ABTS, air O2; RM811
[8] = tested on: LacA (parent-type αLacA, recombinant); conditions: 100 mM acetate pH 4.0, 30 °C, 10–1000 µM ABTS, air O2; RM243
[9] = tested on: LacA (parent-type αLacA, recombinant); conditions: 100 mM acetate pH 4.0, 30 °C, 10–1000 µM ABTS, air O2; RM1524
[10] = tested on: LacA (parent-type αLacA, recombinant); conditions: 100 mM acetate pH 4.0, 30 °C, 10–1000 µM ABTS, air O2; RM1307, expressed with leader mutations αN23I/αA75T
[11] = tested on: LacA (parent-type αLacA, recombinant); conditions: 100 mM acetate pH 4.0, 30 °C, 10–1000 µM ABTS, air O2; IVA205

Molecule `CCn1c(=NN=c2sc3cc(S(=O)(=O)O)ccc3n2CC)sc2cc(S(=O)(=O)O)ccc21` [2,2′-azino-bis(3-ethylbenzothiazoline-6-sulfonic acid)] has a Km [1] of 69.8 ± 3.6 µM, a Km [2] of 147 ± 14.6 µM and a Km [3] of 64 ± 2.5 µM. The Km [4] was 90.2 ± 3.4 µM, the Km [5] was 79.8 ± 12.7 µM and the Km [6] was 206 ± 11.6 µM. The Km [7] was 168 µM, the Km [8] was 64.8 ± 1.4 µM and the Km [9] was 59.8 ± 2.2 µM. It also gave a Km [10] of 67.5 ± 1.7 µM and a Km [11] of 85.3 ± 0.3 µM.
